# Reference: ChEMBL document CHEMBL1201862, “PubChem BioAssay data set” (2004)
# Active and inactive are the calls of the source.
# How the values were obtained:
# [1] = viability loss in HeLa cells – cytotoxicity control for MgcRacGAP inhibitor project, dose response (AID 624300); format: functional
# [2] = biological target: T1, Rac GTPase-activating protein 1 (Homo sapiens, UniProt Q9H0H5); test: blockers of MgcRacGAP-driven Rac1 GTP hydrolysis – biochemical, ADP Hunter fluorescence, primary and confirmatory, confirmation (AID 624330); format: functional
# T1 sequence (Q9H0H5 whole entry): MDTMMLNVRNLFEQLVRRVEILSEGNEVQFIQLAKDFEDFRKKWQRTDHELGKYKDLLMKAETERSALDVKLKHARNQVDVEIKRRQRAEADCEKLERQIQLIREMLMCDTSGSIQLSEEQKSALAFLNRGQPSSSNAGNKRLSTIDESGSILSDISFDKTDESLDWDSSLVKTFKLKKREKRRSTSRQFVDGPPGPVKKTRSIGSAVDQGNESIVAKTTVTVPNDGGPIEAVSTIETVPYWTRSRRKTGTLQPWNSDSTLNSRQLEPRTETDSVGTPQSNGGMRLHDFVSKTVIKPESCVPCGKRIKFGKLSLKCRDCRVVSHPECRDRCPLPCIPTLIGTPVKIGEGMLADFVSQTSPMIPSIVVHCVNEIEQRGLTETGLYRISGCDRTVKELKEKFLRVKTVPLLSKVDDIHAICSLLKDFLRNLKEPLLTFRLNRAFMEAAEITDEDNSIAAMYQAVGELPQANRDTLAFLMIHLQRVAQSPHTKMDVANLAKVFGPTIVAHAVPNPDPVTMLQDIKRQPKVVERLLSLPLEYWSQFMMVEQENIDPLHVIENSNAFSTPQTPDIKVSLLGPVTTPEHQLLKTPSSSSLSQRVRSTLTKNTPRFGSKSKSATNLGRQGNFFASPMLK
# [3] = biological target: T2, Adenosylmethionine-8-amino-7-oxononanoate aminotransferase (Mycobacterium tuberculosis, UniProt P9WQ81); test: Mycobacterium tuberculosis BioA enzyme inhibitor Measured in Biochemical System Using Plate Reader - 2163-02_Inhibitor_Dose_CherryPick_Activity.; format: functional, Mycobacterium tuberculosis UT205
# T2 sequence (P9WQ81 whole entry): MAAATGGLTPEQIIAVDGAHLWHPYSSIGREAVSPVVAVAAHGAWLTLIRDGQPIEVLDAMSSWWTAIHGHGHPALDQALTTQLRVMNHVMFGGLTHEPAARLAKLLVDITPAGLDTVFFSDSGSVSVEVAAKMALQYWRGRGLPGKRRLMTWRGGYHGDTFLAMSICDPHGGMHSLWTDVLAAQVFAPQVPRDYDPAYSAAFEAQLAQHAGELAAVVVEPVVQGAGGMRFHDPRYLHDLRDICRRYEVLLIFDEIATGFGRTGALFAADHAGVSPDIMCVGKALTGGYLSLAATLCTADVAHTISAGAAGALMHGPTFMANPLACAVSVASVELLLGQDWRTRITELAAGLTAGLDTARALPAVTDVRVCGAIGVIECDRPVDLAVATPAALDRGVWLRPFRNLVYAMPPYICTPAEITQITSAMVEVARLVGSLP
# [4] = Luminescence Cell-Based Dose Confirmation HTS to Identify Activators of 5'UTR Stem-Loop Driven Alpha-Synuclein mRNA Translation in H4 Neuroglioblastoma Cells. [Related pubchem assays: 1829 (Project Summary), 1814 (Primary HTS)]; format: functional
# [5] = biological target: Cytochrome P450 2C9 (Homo sapiens, UniProt P11712)
# Cytochrome P450 2C9, sequence (P11712 whole entry): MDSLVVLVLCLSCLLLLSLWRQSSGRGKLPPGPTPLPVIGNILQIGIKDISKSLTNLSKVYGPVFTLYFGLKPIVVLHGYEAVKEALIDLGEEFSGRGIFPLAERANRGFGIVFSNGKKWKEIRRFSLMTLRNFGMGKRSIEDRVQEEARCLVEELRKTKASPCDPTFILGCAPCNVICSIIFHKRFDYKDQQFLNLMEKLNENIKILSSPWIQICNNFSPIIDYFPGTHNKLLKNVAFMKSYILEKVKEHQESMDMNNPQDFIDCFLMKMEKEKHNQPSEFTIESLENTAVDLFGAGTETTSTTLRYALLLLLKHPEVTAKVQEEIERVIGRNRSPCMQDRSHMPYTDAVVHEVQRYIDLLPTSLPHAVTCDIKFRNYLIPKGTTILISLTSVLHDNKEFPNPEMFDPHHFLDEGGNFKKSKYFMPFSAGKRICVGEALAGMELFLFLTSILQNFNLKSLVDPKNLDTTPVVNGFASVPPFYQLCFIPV
# [6] = system: H4; test: Luminescence Cell-Based Dose Response HTS to Identify Activators of 5'UTR Stem-Loop Driven Prion Protein mRNA Translation in H4 Neuroglioblastoma Cells. [Related pubchem assays: 1829 (Project Summary), 1814 (Primary HTS)]; format: functional; conditions: Homo sapiens
# [7] = Luminescence Cell-Based Dose Response HTS to Identify Activators of Luciferase Translation or Activity in H4 […] Cells. [Related pubchem assays: 1829 (Project Summary), 1814 (Primary HTS)]; format: functional
# [8] = system: HEK293; test: inhibition of NOD1-driven NF-kB reporter – cell-based, luminescence, uHTS, primary screen (AID 1578); format: functional; conditions: Homo sapiens
# [9] = biological target: Nucleotide-binding oligomerization domain-containing protein 2 (Homo sapiens, UniProt Q9HC29); test: inhibition of NOD2-driven NF-kB reporter – cell-based, luminescence, uHTS, HEK293 (AID 1566); format: functional
# Nucleotide-binding oligomerization domain-containing protein 2, sequence (Q9HC29 whole entry, the tested form may be a part): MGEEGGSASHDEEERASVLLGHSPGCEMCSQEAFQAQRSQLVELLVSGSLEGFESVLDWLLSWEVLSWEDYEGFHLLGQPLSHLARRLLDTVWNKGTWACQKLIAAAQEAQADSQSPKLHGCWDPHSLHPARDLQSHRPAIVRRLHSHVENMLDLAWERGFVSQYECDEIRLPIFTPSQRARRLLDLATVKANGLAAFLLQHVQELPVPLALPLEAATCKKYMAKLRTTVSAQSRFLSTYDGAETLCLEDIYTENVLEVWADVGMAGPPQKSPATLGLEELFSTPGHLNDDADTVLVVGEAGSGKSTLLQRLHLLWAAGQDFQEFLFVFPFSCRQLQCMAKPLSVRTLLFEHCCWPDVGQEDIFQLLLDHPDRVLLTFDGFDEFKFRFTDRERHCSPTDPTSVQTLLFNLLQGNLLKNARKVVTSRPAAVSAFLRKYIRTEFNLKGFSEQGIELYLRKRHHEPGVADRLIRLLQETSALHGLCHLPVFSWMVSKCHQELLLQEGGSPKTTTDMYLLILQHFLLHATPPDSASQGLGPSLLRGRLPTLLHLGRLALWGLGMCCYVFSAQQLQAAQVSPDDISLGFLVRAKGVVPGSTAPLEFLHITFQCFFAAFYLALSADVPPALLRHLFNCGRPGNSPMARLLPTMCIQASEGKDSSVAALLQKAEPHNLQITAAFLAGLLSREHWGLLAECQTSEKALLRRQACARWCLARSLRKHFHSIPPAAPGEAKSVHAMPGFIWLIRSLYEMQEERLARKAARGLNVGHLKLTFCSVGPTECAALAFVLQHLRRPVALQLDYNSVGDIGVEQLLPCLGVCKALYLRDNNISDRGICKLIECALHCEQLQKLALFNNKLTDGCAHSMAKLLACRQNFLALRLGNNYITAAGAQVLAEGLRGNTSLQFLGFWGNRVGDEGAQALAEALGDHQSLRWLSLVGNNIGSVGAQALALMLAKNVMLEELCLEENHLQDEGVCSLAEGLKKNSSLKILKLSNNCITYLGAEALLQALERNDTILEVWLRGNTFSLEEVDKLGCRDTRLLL
# [10] = system: HEK293; test: cells; format: functional, cell-based; conditions: Homo sapiens
# [11] = system: HEK293; test: cells; format: functional, cell-based; conditions: Homo sapiens; remark: listed apart in the source
# [12] = system: HEK293; test: EBV LMP1 TES2 canonical NF-kB signalling blockers – cell-based, HEK293, luciferase, cherry-pick, dose response (AID 588343); format: functional; conditions: Homo sapiens
# [13] = system: HEK293; test: NOD2 signaling inhibitors in MDP-stimulated cells, cell-based, uHTS, luminescence (AID 2001); format: functional; conditions: Homo sapiens
# [14] = system: HEK293; test: cells; format: functional, cell-based; conditions: Homo sapiens; remark: listed apart in the source
# [15] = biological target: T3, Heat shock factor protein 1 (Mus musculus, UniProt P38532); test: decrease of HSF1-responsive luciferase luminescence – cell-based, NIH3T3, dose retest, confirmation (AID 2382); format: functional;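 further: NIH3T3 fibroblasts with HSF1-driven luciferase reporter stressed by proteasome inhibitor MG132; luminescence from HSF1-driven luciferase expression after 8 hours of MG132 stress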
# T3 sequence (P38532 whole entry): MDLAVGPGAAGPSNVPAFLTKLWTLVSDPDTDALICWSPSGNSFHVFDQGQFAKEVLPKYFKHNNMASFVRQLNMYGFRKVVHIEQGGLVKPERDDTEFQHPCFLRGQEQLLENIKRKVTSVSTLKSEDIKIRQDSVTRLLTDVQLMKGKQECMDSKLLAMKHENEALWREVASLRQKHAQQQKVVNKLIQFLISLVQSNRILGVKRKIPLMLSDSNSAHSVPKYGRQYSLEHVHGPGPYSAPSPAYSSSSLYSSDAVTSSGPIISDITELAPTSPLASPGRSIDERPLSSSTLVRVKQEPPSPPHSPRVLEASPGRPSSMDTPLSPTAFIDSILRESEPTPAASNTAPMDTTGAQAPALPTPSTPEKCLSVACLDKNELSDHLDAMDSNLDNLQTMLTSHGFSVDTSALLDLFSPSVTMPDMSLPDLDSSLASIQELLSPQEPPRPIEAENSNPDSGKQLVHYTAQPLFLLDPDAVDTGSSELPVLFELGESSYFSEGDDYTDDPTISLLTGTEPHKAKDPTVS
# [16] = NIH3T3 cell viability loss – ATP luminescence, mouse fibroblasts, counter-screen, dose response (AID 2010); format: functional, cell-based;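 further: cells exposed to compound for about 90 hours before reading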
# [17] = fluconazole-exposed Candida albicans growth modulators – fluorescence, retest, confirmation (AID 2467); format: functional, cell-based
# [18] = biological target: T4, Protein RecA (Mycobacterium tuberculosis, UniProt P9WHJ3); test: Fluorescence Cell-Free Homogeneous Dose Retest to Identify Inhibitors of RecA-Intein Splicing Activity. [Related pubchem assays (depositor defined):AID2097, AID2223, AID489010, AID492950]; format: functional
# T4 sequence (P9WHJ3 whole entry): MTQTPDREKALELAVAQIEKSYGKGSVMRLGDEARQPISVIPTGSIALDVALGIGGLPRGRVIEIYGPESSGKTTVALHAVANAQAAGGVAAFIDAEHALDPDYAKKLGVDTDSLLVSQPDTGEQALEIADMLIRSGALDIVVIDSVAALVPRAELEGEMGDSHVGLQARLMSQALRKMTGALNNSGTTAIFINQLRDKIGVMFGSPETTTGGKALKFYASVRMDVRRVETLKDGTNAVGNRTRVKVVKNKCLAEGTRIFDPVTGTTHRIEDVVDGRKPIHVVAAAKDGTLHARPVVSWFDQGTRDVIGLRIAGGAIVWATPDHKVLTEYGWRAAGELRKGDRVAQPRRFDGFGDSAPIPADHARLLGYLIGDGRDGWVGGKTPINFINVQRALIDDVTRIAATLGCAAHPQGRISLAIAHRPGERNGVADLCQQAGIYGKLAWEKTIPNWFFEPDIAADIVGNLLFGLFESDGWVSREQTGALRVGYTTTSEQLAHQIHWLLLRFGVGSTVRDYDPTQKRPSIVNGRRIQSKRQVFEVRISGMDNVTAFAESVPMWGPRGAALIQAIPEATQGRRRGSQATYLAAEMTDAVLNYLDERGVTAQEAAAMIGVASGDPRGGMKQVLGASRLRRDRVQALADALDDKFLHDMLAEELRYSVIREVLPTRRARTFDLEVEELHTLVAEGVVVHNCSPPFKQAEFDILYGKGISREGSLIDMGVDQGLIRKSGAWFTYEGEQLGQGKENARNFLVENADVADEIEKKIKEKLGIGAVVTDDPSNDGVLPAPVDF
# [19] = Trypanosoma cruzi growth suppression in host cells – NIH3T3 host cells, beta-gal luminescence, confirmation (AID 2044); format: functional, cell-based;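 further: intracellular parasites grown in NIH/3T3 mouse fibroblasts as host cells; luminescent beta-galactosidase reporter signal from transgenic T. cruzi replicating inside host cells; inhibitors lower the luminescence signal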
# [20] = Fluorescence-based cell-based high throughput dose response assay for inhibitors of the interaction of nucleotide-binding oligomerization domain containing 2 (NOD2) and the receptor-interacting serine-threonine kinase 2 (RIPK2).; format: functional; conditions: Homo sapiens
# [21] = biological target: T5, Replicative DNA helicase DnaB (Mycobacterium tuberculosis, UniProt P9WMR3); test: DnaB intein splicing inhibitors, dose response, biochemical, cell-free fluorescence (AID 449749); format: functional
# T5 sequence (P9WMR3 whole entry): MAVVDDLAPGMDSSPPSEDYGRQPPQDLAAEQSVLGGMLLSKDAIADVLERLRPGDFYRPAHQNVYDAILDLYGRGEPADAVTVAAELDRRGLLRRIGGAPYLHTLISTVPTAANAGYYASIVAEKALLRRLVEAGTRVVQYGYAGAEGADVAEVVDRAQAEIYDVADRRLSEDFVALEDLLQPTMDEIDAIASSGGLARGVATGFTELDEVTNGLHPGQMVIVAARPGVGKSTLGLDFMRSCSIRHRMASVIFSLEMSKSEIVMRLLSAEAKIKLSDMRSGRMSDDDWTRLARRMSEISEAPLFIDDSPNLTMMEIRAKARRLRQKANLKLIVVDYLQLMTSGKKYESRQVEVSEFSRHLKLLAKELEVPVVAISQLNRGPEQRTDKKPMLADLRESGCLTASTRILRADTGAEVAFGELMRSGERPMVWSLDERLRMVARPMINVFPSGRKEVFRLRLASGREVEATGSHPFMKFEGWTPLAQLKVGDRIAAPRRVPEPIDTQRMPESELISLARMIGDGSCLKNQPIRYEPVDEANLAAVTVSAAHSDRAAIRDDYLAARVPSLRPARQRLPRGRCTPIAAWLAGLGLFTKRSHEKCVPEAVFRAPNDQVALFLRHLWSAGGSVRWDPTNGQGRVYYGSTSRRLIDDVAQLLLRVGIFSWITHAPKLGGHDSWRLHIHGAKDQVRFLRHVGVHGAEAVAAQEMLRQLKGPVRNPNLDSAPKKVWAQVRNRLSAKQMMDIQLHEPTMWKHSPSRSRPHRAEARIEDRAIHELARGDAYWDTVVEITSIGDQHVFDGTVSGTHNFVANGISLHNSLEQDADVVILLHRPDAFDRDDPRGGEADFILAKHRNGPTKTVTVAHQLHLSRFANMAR
# [22] = NIH-3T3 fibroblast cytotoxicity, dose response, cytotoxicity control, cell-based, fluorescence, Alamar Blue, secondary assay (AID 2327); format: functional;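 further: NIH-3T3 mouse fibroblasts cultured with fluconazole at 8 µg/mL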
# [23] = system: P388/ADR; test: cells; format: functional; conditions: Mus musculus
# [24] = system: P388; test: cells; format: functional; conditions: Mus musculus
# [25] = system: SN12K1; test: cells; format: functional; conditions: Homo sapiens
smiles,measurement,setting,value
CCCc1cc(S)n2c(nc3ccccc32)c1C#N,CC50,[1],100 µM (active)
same,IC50,[2],52.2 µM (active)
C#CCSc1nnc(-c2sc(-c3ccccc3)nc2C)n1C,AC50,[3],2.88 µM (active)
same,EC50,[4],> 120 µM (not active)
same,AC50,[5],17.8 µM (inconclusive)
same,EC50,[6],16.9 µM (active)
same,EC50,[7],48.9 µM (active)
Cc1ccc(Nc2c([N+](=O)[O-])nn(-c3ccc4c(c3)OCCO4)[n+]2[O-])cc1F,EC50,[8],> 20 µM (inactive)
same,EC50,[9],> 20 µM (inactive)
same,IC50,[10],> 20 µM (inactive)
same,IC50,[11],0.842 µM (active)
same,AC50,[12],0.538 µM (active)
same,IC50,[13],> 20 µM (inactive)
same,IC50,[14],> 20 µM (inactive)
Cc1nc2nc(SCC(=O)NCc3ccco3)nn2c(C)c1Cc1ccccc1,AC50,[3],0.704 µM (active)
Cc1ccc(-n2ncc(Br)c(Br)c2=O)cc1,EC50,[15],5.57 µM (active)
same,EC50,[16],1.97 µM (active)
same,EC50,[17],0.443 µM (active)
same,EC50,[18],4.75 µM (active)
same,EC50,[19],2.23 µM (active)
same,IC50,[20],3.25 µM (active)
same,AC50,[21],20.9 µM (active)
same,EC50,[22],2.27 µM (inconclusive)
CC(=O)N1CCN(c2ccc(Nc3ncnc4c3oc3ccccc34)cc2)CC1,CC50,[1],58.3 µM (active)
same,IC50,[2],46 µM (active)
CSc1ccc(S(=O)(=O)N2CCC(C(=O)Nc3cccnc3)CC2)cc1,AC50,[3],0.807 µM (active)
Nc1ccn(C2OC(CO)C(O)C2O)c(=O)n1 (configuration not stated),GI50,[23],0.05 µM (active)
same,GI50,[24],0.05 µM (active)
same,GI50,[25],0.07 µM (active)
CC(=O)OCc1cc(=O)n(C)c2c3c4c(cc12)c(C)cc(=O)n4CO3,GI50,[23],0.531 µM (active)
same,GI50,[24],0.344 µM (active)
same,GI50,[25],0.843 µM (active)
CCCCC1(C2c3ccccc3Oc3ccccc32)C(=O)N(c2ccccc2)N(c2ccccc2)C1=O,GI50,[23],17.6 µM (inactive)
same,GI50,[24],9.82 µM (inactive)
same,GI50,[25],34.8 µM (inactive)
CN1c2ccc(-c3cccc(F)c3)cc2[C@H]2[C@H](CCN2C(=O)C2CCOCC2)[C@H]1CO,AC50,[3],0.108 µM (active)
NCCCNCCSP(=O)(O)O [AMIFOSTINE],GI50,[23],84.3 µM (inactive)
same,GI50,[24],54.6 µM (inactive)
same,GI50,[25],> 667 µM (inactive)
Cn1c(/C=C/CO)c(CO)c2c1C(=O)C=C(N1CC1)C2=O [APAZIQUONE],GI50,[23],0.506 µM (active)
same,GI50,[24],0.94 µM (active)
same,GI50,[25],0.0102 µM (active)
